Columns and labels:
[1] = Stability data of Afatinib dimaleate crystalline Form H3 on storage (PXRD, impurity, water content); type: physicochemical
Method: X-ray powder diffraction spectrum was measured on a bruker axs D8 advance X-ray powder diffractometer having a copper-a radiation. Adequate sample was gently flattered on a sample holder and scanned from 2 to 50 degrees two-theta, at 0.02 increment and scan speed of 0.2 Sec/Step. The sample was simply placed on the sample holder. The sample was rotated at 30 rpm at a voltage 40 KV and current 35 mA.

[2] = as above; type: physicochemical; parameters: Impurity: unit not given here
[3] = 25 ± 2° C./RH 60 ± 5%, 2nd Month
[4] = 25 ± 2° C./RH 60 ± 5%, 1st Month
[5] = 25 ± 2° C./RH 60 ± 5%, 3rd Month

PXRD ([1]; 5 ± 3° C., 1st Month): Form H3 | PXRD ([1]; 5 ± 3° C., 3rd Month): Form H3 | PXRD ([1]; 5 ± 3° C., Initial): Form H3 | PXRD [1, 3]: Form H3 | Impurity ([2]; 5 ± 3° C., 1st Month): 0.22 | Water Content ([2]; 5 ± 3° C., 1st Month): 1.34% | Impurity ([2]; 5 ± 3° C., 2nd Month): 0.26 | PXRD ([2]; 5 ± 3° C., 2nd Month): Form H3 | Water Content ([2]; 5 ± 3° C., 2nd Month): 1.4% | Impurity ([2]; 5 ± 3° C., 3rd Month): 0.27 | Water Content ([2]; 5 ± 3° C., 3rd Month): 1.26% | Impurity ([2]; 5 ± 3° C., Initial): 0.22 | Water Content ([2]; 5 ± 3° C., Initial): 1% | Impurity [2, 4]: 0.22 | PXRD [2, 4]: Form H3 | Water Content [2, 4]: 1.18% | Impurity [2, 3]: 0.38 | Water Content [2, 3]: 1.35% | Impurity [2, 5]: 0.43 | PXRD [2, 5]: Form H3 | Water Content [2, 5]: 1.56% | Impurity ([2]; 25 ± 2° C./RH 60 ± 5%, Initial): 0.22 | PXRD ([2]; 25 ± 2° C./RH 60 ± 5%, Initial): Form H3 | Water Content ([2]; 25 ± 2° C./RH 60 ± 5%, Initial): 1% | stability ([2]; at 5±3° C. and 25±2° C./RH (Relative humidity) 60±5%): stable
Structure (SMILES): CN(C)C/C=C/C(=O)Nc1cc2c(Nc3ccc(F)c(Cl)c3)ncnc2cc1O[C@H]1CCOC1 [Afatinib dimaleate crystalline Form H3, 2-Butenamide, N-[4-[(3-Chloro-4-fluorophenyl)amino]-7-[[(3S)-tetrahydro-3-furanyl]oxy]-6-quinazolinyl]-4(dimethylamino),(2E)-]

Reference: US10329281B2, “Polymorphs and process for the preparation of quinazolinyl derivatives” (HETERO LABS LTD, priority 2015, dated 2019)
